Reference: US5977133A, “Pyridone antibiotic with improved safety profile” (priority 1998, dated 1999)
≈ marks a conversion by molar mass, not a printed value. Entries after “also recorded” stand apart in the source; their conditions may differ. Counter-ions that a name gives are not always drawn. Like-named read-outs stand apart in the source and are kept apart here.

Assays:
[1] = tested on: bacteria; assay: In vitro antibacterial activity (overall statement); assay type: cell-based; details: overall statement
[2] = in vivo; details: mouse, ip
[3] = tested on: Legionella spp.; assay: microbe, parasite or virus in culture; assay type: cell-based; details: Legionella; for MIC: read-out: MIC Range
[4] = tested on: streptococci; assay: In vitro MIC, agar dilution (summary in text); assay type: cell-based
[5] = tested on: staphylococci; assay: In vitro MIC, agar dilution (summary in text); assay type: cell-based
[6] = tested on: anaerobes; assay type: cell-based, B. fragilis, C. difficile, C. perfringens; details: words
[7] = tested on: enterococci; assay: In vitro MIC, agar dilution (summary in text); assay type: cell-based
[8] = tested on: ciprofloxacin resistant staphylococcal strains; assay: In vitro MIC, agar dilution (summary in text); assay type: cell-based; details: read-out: MIC90
[9] = tested on: staphylococcus aureus NTCC 10649; assay: In vivo efficacy, mouse infection (ED50); details: for ED50: Staphylococcus aureus, NTCC10649, in Mus musculus, 168 h
[10] = tested on: Escherichia coli JUHL; assay: In vivo efficacy, mouse infection (ED50); details: for ED50: Escherichia coli, in Mus musculus, 168 h
[11] = tested on: M. catarrhalis; assay: In vitro MIC, agar dilution; assay type: cell-based; details: Moraxella catarrhalis; for MIC: read-out: MIC Range
[12] = tested on: Streptococcus pneumoniae 6303; assay: In vivo efficacy, mouse infection (ED50); details: for ED50: Streptococcus pneumoniae, 6303, in Mus musculus, 168 h
[13] = tested on: enterobacteriaceae; assay: microbe, parasite or virus in culture; assay type: cell-based
[14] = tested on: gram positive and gram negative infections; assay: In vivo efficacy in mice (overall statement); set-up: species or system female CF-1 outbred mice; details: for in vivo efficacy in words: gram positive and gram negative infections
[15] = tested on: E. faecium (VanS); assay: In vitro MIC, agar dilution; assay type: cell-based; details: Enterococcus faecium; for MIC: read-out: MIC Range; for MIC50: read-out: MIC50
[16] = M. catarrhalis, 18 isolates, read-out: MIC50
[17] = E. faecium (VanS), 11 isolates, read-out: MIC90

SMILES	LD50 at 504 h [2] [mg/kg]	MIC50 [3] [µg/mL]	MIC90 [3] [µg/mL]	MIC [3] [µg/mL]	ED50 ([9]; po) [mg/kg]	ED50 ([9]; sc) [mg/kg]	ED50 ([10]; po) [mg/kg]	ED50 ([10]; sc) [mg/kg]	MIC90 [11] [µg/mL]	MIC50 [11, 16] [µg/mL]	MIC ([11]; M. catarrhalis, 18 isolates) [µg/mL]	ED50 ([12]; po) [mg/kg]	ED50 ([12]; sc) [mg/kg]	MIC [15] [µg/mL]	MIC50 ([15]; E. faecium (VanS), 11 isolates) [µg/mL]	MIC90 [15, 17] [µg/mL]	MIC50 [11] [µg/mL]	other results
CN[C@@H]1CN(c2c(F)cn3c(=O)c(C(=O)O)cc(C4CC4)c3c2C)CC12CC2 [Example 1, 1-cyclopropyl-8-(7(S)-N-methylamino-5-azaspiro[2.4]heptyl)-7-fluoro-9-methyl-4-oxo-4H-guinolizine-3-carboxylic acid hydrochloride]	232	0.12	0.25	0.12 to 0.25	5	1.5	6.8	1.4	0.03	0.015	0.008 to 0.03	20	12.5	0.12 to 1	0.5	1	–	antibacterial activity in words [1]: excellent, broad-spectrum antibacterial activity; weight loss in words (mouse, in vivo): no weight loss was observed; relative toxicity / safety in words (single intraperitoneal injection to mice, hydrochloride): significantly less toxic than Example 2 or Example 5; also recorded: less morbidity and mortality than equivalent doses of Example 2 and Example 5; MIC90 [4]: 0.06 µg/mL; in vitro activity relative to reference drugs ([4]; words): superior to ciprofloxacin, sparfloxacin, and trovafloxacin; MIC90 [5]: 0.03 µg/mL; in vitro activity relative to reference drugs ([5]; words): superior to ciprofloxacin, sparfloxacin, and trovafloxacin; in vitro activity relative to reference drugs [6]: significantly more active than ciprofloxacin, trovafloxacin, and sparfloxacin; MIC90 [7]: 0.25 to 1 µg/mL; in vitro activity relative to reference drugs ([7]; words): superior to ciprofloxacin, sparfloxacin, and trovafloxacin; MIC90 [8]: 0.5 µg/mL; efficacy relative to ciprofloxacin ([9]; S. aureus, words): superior to ciprofloxacin; efficacy relative to ciprofloxacin ([10]; E. coli, words): comparable; efficacy relative to ciprofloxacin ([12]; S. pneumoniae, words): superior to ciprofloxacin; MIC90 [13]: 0.015 to 0.25 µg/mL; in vitro activity relative to reference drugs [13]: equivalent to ciprofloxacin and superior to trovafloxacin and sparfloxacin; in vivo efficacy in words ([14]; hydrochloride): maintaining efficacy versus S. aureus. S. pneumoniae and E. coli; in vivo efficacy in words ([14]; listed as example 1, hydrochloride): broad spectrum efficacy against both gram positive and gram negative infections; oral efficacy in words ([14]; oral, all infections): Oral efficacy was also demonstrated against all infections
N[C@@H]1[C@H]2CN(c3nc4c(cc3F)c(=O)c(C(=O)O)cn4-c3ccc(F)cc3F)C[C@@H]12 [Trovafloxacin, trovafloxacin]	–	0.12 (≈ 0.288 µM)	0.25 (≈ 0.6 µM)	0.12 to 0.25 (≈ 0.288 to 0.6 µM)	–	–	–	–	0.06 (≈ 0.144 µM)	–	0.015 to 0.25 (≈ 0.036 to 0.6 µM)	–	–	0.25 to 4 (≈ 0.6 to 9.61 µM)	2 (≈ 4.8 µM)	2 (≈ 4.8 µM)	0.03 (≈ 0.0721 µM)	–
NC1CCN(c2c(F)cc3c(=O)c(C(=O)O)cn(C4CC4)c3c2Cl)C1 (stereo not shown) [Clinafloxacin, clinafloxacin]	–	0.06 (≈ 0.164 µM)	0.12 (≈ 0.328 µM)	0.03 to 0.12 (≈ 0.082 to 0.328 µM)	–	–	–	–	–	–	–	–	–	0.12 to 1 (≈ 0.328 to 2.73 µM)	0.5 (≈ 1.37 µM)	1 (≈ 2.73 µM)	–	–
Cc1c(N2C[C@@H](N)C3(CC3)C2)c(F)cn2c(=O)c(C(=O)O)cc(C3CC3)c12 [Example 5, 1-cyclopropyl-8-(7(S)-amino-5-azaspiror2.41heptvl)-7-fluoro-9-methyl4-oxo-4H-quinolizine-3-carboxylic acid hydrochloride]	105	0.25	0.25	0.12 to 0.25	2.3	0.9	5	0.6	0.03	0.015	0.015 to 0.03	4.2	0.9	0.06 to 0.5	0.25	–	–	body weight loss (mouse, in vivo, ip, 100 mg/kg): 18%; MIC90 [15]: 0.25 µg/mL
C[C@@H]1CN(c2c(F)c(N)c3c(=O)c(C(=O)O)cn(C4CC4)c3c2F)C[C@H](C)N1 [Sparfloxacin, sparfloxacin]	–	0.06 (≈ 0.153 µM)	0.25 (≈ 0.637 µM)	0.03 to 0.25 (≈ 0.0765 to 0.637 µM)	–	–	–	–	0.06 (≈ 0.153 µM)	–	0.015 to 0.25 (≈ 0.0382 to 0.637 µM)	–	–	–	1 (≈ 2.55 µM)	2 (≈ 5.1 µM)	0.03 (≈ 0.0765 µM)	MIC ([15]; E. faecium (VanS), 11 isolates): 1 to 4 µg/mL (≈ 2.55 to 10.2 µM)
